{"source": "PubChem BioAssay AID2202554", "about": "(NIEHS Division of Translational Toxicology (DTT))", "note": "Inconclusive results are not listed. Active and inactive are the calls of the source. How the calls were made is not given here."}
{"test_system": "S. typhimurium/E. coli reverse mutation, colony counts", "test": "Bacterial reverse mutation test (aka Ames test) summary data", "outline": "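S. typhimurium his⁻ strains (TA97–TA1538) and E. coli WP2 uvrA pKM101 trp⁻, dosed over a range with or without rat, hamster or mouse liver S9. Preincubated 20 min at 37° C (or plate incorporation), plated in agar, incubated usually two days. Revertant colonies counted against negative controls.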"}
{"compound": "Clc1ccc(Cl)c(Cl)c1Cl", "outcome": "inactive; negative"}
{"compound": "CCN", "outcome": "inactive; negative"}
{"compound": "ClCCCCl", "outcome": "active; positive"}
{"compound": "COc1c2occc2cc2ccc(=O)oc12", "outcome": "active; positive"}
{"compound": "O=C1CCCO1", "outcome": "inactive; negative"}
{"compound": "Nc1ccc(N=Nc2ccccc2)c(N)n1", "outcome": "active; positive"}
{"compound": "CCCCOCCOCCSC#N", "outcome": "inactive; negative"}
{"compound": "CCC(Cl)[N+](=O)[O-]", "note": "(stereo unspecified)", "outcome": "active; positive"}
{"compound": "COc1ccc(N)cc1N", "outcome": "active; positive"}
{"compound": "O=C(O)c1ccccc1Cl", "outcome": "inactive; negative"}
{"compound": "c1ccsc1", "outcome": "inactive; negative"}
{"compound": "CN=C=O", "outcome": "inactive; negative"}
{"compound": "ClCC1CO1", "note": "(stereo unspecified)", "outcome": "active; positive"}
{"compound": "COS(C)(=O)=O", "outcome": "active; positive"}
{"compound": "Cc1c(O)c(Br)c(Br)c(Br)c1Br", "outcome": "inactive; negative"}
{"compound": "CCCCCCC(=O)O", "outcome": "inactive; negative"}
{"compound": "[O-][n+]1ccccc1SSc1cccc[n+]1[O-]", "outcome": "inactive; negative"}
{"compound": "Cc1ccc2cc3c(ccc4ccccc43)c3c2c1CC3", "outcome": "active; positive"}
{"compound": "CCN(CC)C(=S)S", "outcome": "inactive; negative"}
{"compound": "CNCCS(=O)(=O)O", "outcome": "inactive; negative"}
{"compound": "N[C@@H](CCC(=O)O)C(=O)O", "outcome": "inactive; negative"}
{"compound": "c1ccc2[nH]cnc2c1", "outcome": "inactive; negative"}
{"compound": "Oc1ccc(Cl)cc1Sc1cc(Cl)ccc1O", "outcome": "inactive; negative"}
{"compound": "CC(=O)Oc1ccccc1C(=O)O", "outcome": "inactive; negative"}
{"compound": "CCC(CO)[N+](=O)[O-]", "note": "(stereo unspecified)", "outcome": "inactive; negative"}
{"compound": "O=C(O)C=Cc1ccc(C=CC(=O)O)cc1", "outcome": "inactive; negative"}
{"compound": "NCCNCCNCCN", "outcome": "active; positive"}
{"compound": "CCc1ccccc1O", "outcome": "inactive; negative"}
{"compound": "ClNc1nc(NCl)nc(NCl)n1", "outcome": "inactive; negative"}
{"compound": "Cc1ccc(S(N)(=O)=O)cc1", "outcome": "inactive; negative"}
{"compound": "CCN(C(=O)N(CC)c1ccccc1)c1ccccc1", "outcome": "inactive; negative"}
{"compound": "COc1cc2c(c(OC)c1OC)-c1ccc(OC)c(=O)cc1[C@@H](NC(C)=O)CC2", "outcome": "inactive; negative"}
{"compound": "CCCCC(CC)CNCC(CC)CCCC", "note": "(stereo unspecified)", "outcome": "inactive; negative"}
{"compound": "Oc1ccc(Cl)cc1", "outcome": "inactive; negative"}
{"compound": "CCC(CO)(CO)[N+](=O)[O-]", "outcome": "inactive; negative"}
{"compound": "Clc1ccc(C(c2ccc(Cl)cc2)c2ccc(Cl)cc2)cc1", "outcome": "inactive; negative"}
{"compound": "CC(=O)OCc1ccccc1", "outcome": "inactive; negative"}
{"compound": "CC1=CC(C)(C)Nc2ccccc21", "outcome": "inactive; negative"}
{"compound": "Nc1ccc(C(=O)O)cc1", "outcome": "inactive; negative"}
{"compound": "O=C1OC(=O)c2cc([N+](=O)[O-])ccc21", "outcome": "active; positive"}
{"compound": "O=C(O)CC(O)(CC(=O)OO)C(=O)O", "note": "(stereo unspecified)", "outcome": "inactive; negative"}
{"compound": "S=C([S-])NCCNC(=S)[S-].[Zn+2]", "outcome": "inactive; negative"}
{"compound": "OCC(Br)CBr", "note": "(stereo unspecified)", "outcome": "active; positive"}
{"compound": "CC1CCC(CO)CC1", "note": "(stereo unspecified)", "outcome": "inactive; negative"}
{"compound": "Nc1ccc(Cl)cc1Cl", "outcome": "active; weakly positive"}
{"compound": "C=CCOC(=O)COCCC(C)C", "outcome": "inactive; negative"}
{"compound": "CC#N", "outcome": "inactive; negative"}
{"compound": "O=C(O)CSCC(=O)O", "outcome": "inactive; negative"}
{"compound": "CCOCCOCC", "outcome": "active; positive"}
{"compound": "O=C(O)c1ccc2c(c1)C(=O)OC2=O", "outcome": "inactive; negative"}
{"compound": "O=[N+]([O-])c1c(Cl)c(Cl)cc(Cl)c1Cl", "outcome": "active; weakly positive"}
{"compound": "CN(C)[C@@H]1C(=O)C(C(N)=O)=C(O)[C@@]2(O)C(=O)C3=C(O)c4c(O)cccc4[C@@](C)(O)[C@H]3[C@H](O)[C@@H]12", "outcome": "inactive; negative"}
{"compound": "c1ccc(Nc2ccc(Nc3ccccc3)cc2)cc1", "outcome": "active; positive"}
{"compound": "c1ccc2cc3ccccc3cc2c1", "outcome": "active; weakly positive"}
{"compound": "CC(Cl)(Cl)Cl", "outcome": "inactive; negative"}
{"compound": "CN(C)C(=O)Cl", "outcome": "active; positive"}
{"compound": "CCN(CC)c1cccc(O)c1", "outcome": "active; positive"}
{"compound": "C[C@@H]1[C@H](O)[C@@H](C)/C=C/C=C/C=C/C=C/C=C/C=C/C=C/[C@H](O[C@@H]2O[C@H](C)[C@@H](O)[C@H](N)[C@@H]2O)C[C@@H]2O[C@](O)(C[C@@H](O)C[C@@H](O)[C@H](O)CC[C@@H](O)C[C@@H](O)CC(=O)O[C@H]1C)C[C@H](O)[C@H]2C(=O)O", "outcome": "inactive; negative"}
{"compound": "CC(C)[C@@H]1CC[C@@H](C)C[C@@H]1O", "outcome": "inactive; negative"}
{"compound": "C=CCOC(=O)CCCCCCCC", "outcome": "inactive; negative"}
{"compound": "NC(=O)Nc1nc2ccccc2[nH]1", "outcome": "active; positive"}
{"compound": "CC(C)CN", "outcome": "inactive; negative"}
{"compound": "O=C(O)C(Br)Br", "outcome": "active; positive"}
{"compound": "O=C1c2ccccc2-c2ccc3c4ccc5c6c(ccc(c7ccc1c2c73)c64)C(=O)c1ccccc1-5", "outcome": "active; weakly positive"}
{"compound": "C=CCBr", "outcome": "active; positive"}
{"compound": "CC(COC(=O)c1ccccc1)(COC(=O)c1ccccc1)COC(=O)c1ccccc1", "outcome": "inactive; negative"}
{"compound": "ClC=C(Cl)Cl", "outcome": "inactive; negative"}
{"compound": "CC(O)c1ccccc1", "note": "(stereo unspecified)", "outcome": "inactive; negative"}
{"compound": "c1ccc(Nc2ccc3ccccc3c2)cc1", "outcome": "inactive; negative"}
{"compound": "CC(C)S", "outcome": "inactive; negative"}
{"compound": "C=C", "outcome": "inactive; negative"}
{"compound": "Nc1ccn([C@H]2CC[C@@H](CO)O2)c(=O)n1", "outcome": "active; weakly positive"}
{"compound": "S=C=S", "outcome": "inactive; negative"}
{"compound": "Nc1cc([N+](=O)[O-])ccc1C(=O)O", "outcome": "active; positive"}
{"compound": "CCCCC(CC)CO", "note": "(stereo unspecified)", "outcome": "inactive; negative"}
{"compound": "CC=NO", "outcome": "active; positive"}
{"compound": "CC(C)CC(=O)CC(C)C", "outcome": "inactive; negative"}
{"compound": "Cc1ccc(N)cc1O", "outcome": "active; positive"}
{"compound": "COc1ccc2cc3[n+](cc2c1OC)CCc1cc2c(cc1-3)OCO2", "outcome": "inactive; negative"}
{"compound": "CC(C)(c1ccc(O)cc1)c1ccc(O)cc1", "outcome": "inactive; negative"}
{"compound": "CC[C@H](C)COC(=O)C=Cc1ccc(N=Cc2ccc(OC)cc2)cc1", "outcome": "active; positive"}
{"compound": "O=C(NC(S)c1nc2ccccc2s1)NC(S)c1nc2ccccc2s1", "note": "(stereo unspecified)", "outcome": "active; positive"}
{"compound": "O=C(Cl)c1ccccc1[N+](=O)[O-]", "outcome": "active; positive"}
{"compound": "CNc1ccc(O)cc1", "outcome": "active; positive"}
{"compound": "N#CC(Cl)(Cl)Cl", "outcome": "active; weakly positive"}
{"compound": "CC(=O)Nc1cccc(C)c1", "outcome": "inactive; negative"}
{"compound": "Nc1ccc(Cl)cc1", "outcome": "active; positive"}
{"compound": "CCNC(=O)Nc1ncc([N+](=O)[O-])s1", "outcome": "active; positive"}
{"compound": "Cc1ccnc2c1NC(=O)c1cccnc1N2C1CC1", "outcome": "inactive; negative"}
{"compound": "Nc1nc2ncc(CNc3ccc(C(=O)N[C@@H](CCC(=O)O)C(=O)O)cc3)nc2c(=O)[nH]1", "outcome": "inactive; negative"}
{"compound": "C(=C\\c1ccccc1)/c1ccccc1", "outcome": "inactive; negative"}
{"compound": "O=S1OCC2C(CO1)C1(Cl)C(Cl)=C(Cl)C2(Cl)C1(Cl)Cl", "note": "(stereo unspecified)", "outcome": "inactive; negative"}
{"compound": "Cc1c(Br)c(Br)c(Br)c(Br)c1Br", "outcome": "inactive; negative"}
{"compound": "OCCCBr", "outcome": "active; positive"}
{"compound": "O=C1CN(N=Cc2ccc([N+](=O)[O-])o2)C(=O)N1", "outcome": "active; positive"}
{"compound": "Cc1ncc[nH]1", "outcome": "inactive; negative"}
{"compound": "CCNCC", "outcome": "inactive; negative"}
{"compound": "F", "outcome": "inactive; negative"}
{"compound": "ClCc1cccnc1", "outcome": "active; positive"}
{"compound": "ON=C1CCCCC1", "outcome": "active; positive"}
{"compound": "CCN(CC)CC", "outcome": "inactive; negative"}
{"compound": "O=C(O)COc1cc(Cl)c(Cl)cc1Cl", "outcome": "inactive; negative"}
{"compound": "c1ccc2cc3c(cc2c1)-c1cccc2cccc-3c12", "outcome": "active; positive"}
{"compound": "CCCCOC(=O)c1ccc(O)cc1", "outcome": "inactive; negative"}
{"compound": "CC(=O)OCCOCCOCCOC(C)=O", "outcome": "active; positive"}
{"compound": "CCCC=NO", "outcome": "active; weakly positive"}
{"compound": "Cc1cc(-c2ccc(N=Nc3c(S(=O)(=O)O)cc4cc(S(=O)(=O)O)cc(N)c4c3O)c(C)c2)ccc1N=Nc1c(S(=O)(=O)O)cc2cc(S(=O)(=O)O)cc(N)c2c1O", "outcome": "active; positive"}
{"compound": "CCOc1ccc(N=Nc2ccc(-c3ccc(N=Nc4c(O)ccc5cc(S(=O)(=O)O)cc(S(=O)(=O)O)c45)c(C)c3)cc2C)cc1", "outcome": "inactive; negative"}
{"compound": "CC1CCC(C(C)CS)CC1S", "note": "(stereo unspecified)", "outcome": "inactive; negative"}
{"compound": "C=C(Cl)CCl", "outcome": "active; positive"}
{"compound": "O=[N+]([O-])c1cccc2cccc([N+](=O)[O-])c12", "outcome": "active; positive"}
{"compound": "CCCCCCN", "outcome": "inactive; negative"}
{"compound": "C=Cc1ccccn1", "outcome": "active; positive"}
{"compound": "Cc1ccc(Nc2ccc(Nc3ccc(C)cc3S(=O)(=O)O)c3c2C(=O)c2ccccc2C3=O)c(S(=O)(=O)O)c1", "outcome": "active; weakly positive"}
{"compound": "O=C(Nc1ccc(Cl)cc1)Nc1ccc(Cl)c(Cl)c1", "outcome": "inactive; negative"}
{"compound": "CCCCC(CC)COC(=O)CCCCC(=O)O", "note": "(stereo unspecified)", "outcome": "inactive; negative"}
{"compound": "CCOP(=S)(OCC)SC1OCCOC1SP(=S)(OCC)OCC", "note": "(stereo unspecified)", "outcome": "active; positive"}
{"compound": "Cc1cccc(C(=O)O)c1", "outcome": "inactive; negative"}
{"compound": "COC(=O)C1CCC(C(=O)OC)CC1", "note": "(stereo unspecified)", "outcome": "active; positive"}
{"compound": "COc1cc(CNC(=O)CCCC/C=C/C(C)C)ccc1O", "outcome": "inactive; negative"}
{"compound": "CN(C)c1ccc(Cc2ccc(N(C)C)cc2)cc1", "outcome": "active; positive"}
{"compound": "CCCCOCCO", "outcome": "inactive; negative"}
{"compound": "[CH3][Pb]([CH3])([CH3])[CH3]", "outcome": "inactive; negative"}
{"compound": "Cc1ccc([N+](=O)[O-])c(N)c1", "outcome": "inactive; negative"}
{"compound": "CC=CC=O", "outcome": "active; positive"}
{"compound": "O=C1NC(=O)C(c2ccccc2)(c2ccccc2)N1", "outcome": "inactive; negative"}
{"compound": "CC(Cl)(Cl)[N+](=O)[O-]", "outcome": "active; positive"}
{"compound": "CC=Cc1ccc(O)c(OC)c1", "outcome": "inactive; negative"}
{"compound": "Cn1cnc2c1c(=O)[nH]c(=O)n2C", "outcome": "inactive; negative"}
{"compound": "OCCOCCOCCO", "outcome": "active; positive"}
{"compound": "CCCCCCCCCCCCCC(=O)O", "outcome": "inactive; negative"}
